Experimental data taken from patent US7598382B2, “Aryl substituted imidazoquinolines” (Coley Pharmaceutical Group, Inc., priority 2002, dated 2009).

SMILES | melting point [°C]
CCOCc1nc2c(N)nc3cc(-c4ccncc4)ccc3c2n1CC(C)(C)O [Example 127, 1-[4-Amino-2-ethoxymethyl-7-(pyridin-4-yl)-1H-imidazo[4,5-c]quinolin-1-yl]-2-methylpropan-2-ol] | 220 to 221
CCOCc1nc2c(N)nc3cc(-c4cn[nH]c4)ccc3c2n1CC(C)(C)O [Example 128, 1-[4-Amino-2-ethoxymethyl-7-(1H-pyrazol-4-yl)-1H-imidazo[4,5-c]quinolin-1-yl]-2-methylpropan-2-ol] | > 250
CCOCc1nc2c(N)nc3cc(-c4cccc(C(=O)N5CCCC5)c4)ccc3c2n1CC(C)(C)O [Example 129, {3-[4-Amino-2-ethoxymethyl-1-(2-hydroxy-2-methylpropyl)-1H-imidazo[4,5-c]quinolin-7-yl]phenyl}pyrrolidin-1-ylmethanone] | 216.5 to 217.5
CCOCc1nc2c(N)nc3cc(-c4cccc(C(=O)N5CCOCC5)c4)ccc3c2n1CC(C)(C)O [Example 130, {3-[4-Amino-2-ethoxymethyl-1-(2-hydroxy-2-methylpropyl)-1H-imidazo[4,5-c]quinolin-7-yl]phenyl}morpholin-4-ylmethanone] | 152 to 154
CCOCc1nc2c(N)nc3cc(-c4ccccc4)ccc3c2n1CC(C)(C)O [Example 131, 1-(4-Amino-2-ethoxymethyl-7-phenyl-1H-imidazo[4,5-c]quinolin-1-yl)-2-methylpropan-2-ol] | 211 to 212
CCOCc1nc2c(N)nc3cc(-c4cncc(CO)c4)ccc3c2n1CC(C)(C)O [Example 133, 1-[4-Amino-2-ethoxymethyl-7-(5-hydroxymethylpyridin-3-yl)-1H-imidazo[4,5-c]quinolin-1-yl]-2-methylpropan-2-ol] | 188 to 190
CCOCc1cncc(-c2ccc3c(c2)nc(N)c2nc(COCC)n(CC(C)(C)O)c23)c1 [Example 134, 1-[4-Amino-2-ethoxymethyl-7-(5-ethoxymethylpyridin-3-yl)-1H-imidazo[4,5-c]quinolin-1-yl]-2-methylpropan-2-ol] | 156 to 156.5
CCOCc1nc2c(N)nc3cc(-c4cccc(C(=O)O)c4)ccc3c2n1CC(C)(C)O [Example 135, 3-[4-Amino-2-ethoxymethyl-1-(2-hydroxy-2-methylpropyl)-1H-imidazo[4,5-c]quinolin-7-yl]benzoic acid] | > 250
COCCc1nc2c(N)nc3cc(-c4ccccc4)ccc3c2n1CC(C)(C)O [Example 136, 1-[4-Amino-2-(2-methoxyethyl)-7-phenyl-1H-imidazo[4,5-c]quinolin-1-yl]-2-methylpropan-2-ol] | 226 to 227
COCCc1nc2c(N)nc3cc(-c4ccsc4)ccc3c2n1CC(C)(C)O [Example 137, 1-[4-Amino-2-(2-methoxyethyl)-7-(thiophen-3-yl)-1H-imidazo[4,5-c]quinolin-1-yl]-2-methylpropan-2-ol] | 233 to 234
COCCc1nc2c(N)nc3cc(-c4cccnc4)ccc3c2n1CC(C)(C)O [Example 138, 1-[4-Amino-2-(2-methoxyethyl)-7-(pyridin-3-yl)-1H-imidazo[4,5-c]quinolin-1-yl]-2-methylpropan-2-ol] | 158 to 160
COCCc1nc2c(N)nc3cc(-c4cccc(CO)c4)ccc3c2n1CC(C)(C)O [Example 140, 1-[4-Amino-7-(3-hydroxymethylphenyl)-2-(2-methoxyethyl)-1H-imidazo[4,5-c]quinolin-1-yl]-2-methylpropan-2-ol] | 212 to 213
COCCc1nc2c(N)nc3cc(-c4cncc(CO)c4)ccc3c2n1CC(C)(C)O [Example 141, 1-[4-Amino-7-(5-hydroxymethylpyridin-3-yl)-2-(2-methoxyethyl)-1H-imidazo[4,5-c]quinolin-1-yl]-2-methylpropan-2-ol] | 210 to 211
CCc1nc2c(N)nc3cc(-c4cccnc4)ccc3c2n1CC(C)(C)O [Example 142, 1-[4-Amino-2-ethyl-7-(pyridin-3-yl)-1H-imidazo[4,5-c]quinolin-1-yl]-2-methylpropan-2-ol] | 245 to 247
CCc1nc2c(N)nc3cc(-c4ccncc4)ccc3c2n1CC(C)(C)O [Example 143, 1-[4-Amino-2-ethyl-7-(pyridin-4-yl)-1H-imidazo[4,5-c]quinolin-1-yl]-2-methylpropan-2-ol] | > 250
COCCc1nc2c(N)nc3cc(-c4cccnc4)ccc3c2n1CC(C)C [Example 145, 2-(2-Methoxyethyl)-1-(2-methylpropyl)-7-(pyridin-3-yl)-1H-imidazo[4,5-c]quinolin-4-amine] | 207 to 208
COCCc1nc2c(N)nc3cc(-c4cncc(CO)c4)ccc3c2n1CC(C)C [Example 146, {5-[4-Amino-2-(2-methoxyethyl)-1-(2-methylpropyl)-1H-imidazo[4,5-c]quinolin-7-yl]pyridin-3-yl}methanol] | 202 to 204
CCOCc1nc2c(N)nc3ccc(C=Cc4ccccc4)cc3c2n1CC(C)(C)O [Example 147, 1-(4-Amino-2-ethoxymethyl-8-styryl-1H-imidazo[4,5-c]quinolin-1-yl)-2-methylpropan-2-ol] | 217 to 218

SMILES | melting point [°C]
CCOCc1nc2c(N)nc3ccc(-c4cccnc4)cc3c2n1CC(C)(C)O [Example 148, 1-[4-Amino-2-ethoxymethyl-8-(pyridin-3-yl)-1H-imidazo[4,5-c]quinolin-1-yl]-2-methylpropan-2-ol] | 222 to 223
CCOCc1nc2c(N)nc3ccc(-c4cncc(CO)c4)cc3c2n1CC(C)(C)O [Example 150, 1-[4-Amino-2-ethoxymethyl-8-(5-hydroxymethylpyridin-3-yl)-1H-imidazo[4,5-c]quinolin-1-yl]-2-methylpropan-2-ol] | 230 to 232
CCOCc1nc2c(N)nc3ccc(CCc4ccccc4)cc3c2n1CC(C)(C)O [Example 151, 1-(4-Amino-2-ethoxymethyl-8-phenethyl-1H-imidazo[4,5-c]quinolin-1-yl)-2-methylpropan-2-ol] | 175 to 176
CCOCc1nc2c(N)nc3cc(-c4ccccc4)ccc3c2n1CCCCN1CCCS1(=O)=O [Example 152, 1-[4-(1,1-Dioxidoisothiazolidin-2-yl)butyl]-2-ethoxymethyl-7-phenyl-1H-imidazo[4,5-c]quinolin-4-amine] | 167 to 168.5
CCOCc1nc2c(N)nc3cc(-c4cccnc4)ccc3c2n1CCCCN1CCCS1(=O)=O [Example 153, 1-[4-(1,1-Dioxidoisothiazolidin-2-yl)-butyl]-2-ethoxymethyl-7-(pyridin-3-yl)-1H-imidazo[4,5-c]quinolin-4-amine] | 171 to 173
CCOCc1nc2c(N)nc3cc(-c4ccncc4)ccc3c2n1CCCCN1CCCS1(=O)=O [Example 154, 1-[4-(1,1-Dioxidoisothiazolidin-2-yl)-butyl]-2-ethoxymethyl-7-(pyridin-4-yl)-1H-imidazo[4,5-c]quinolin-4-amine] | 186 to 187.5
CCOCc1nc2c(N)nc3cc(-c4cncc(CO)c4)ccc3c2n1CCCCN1CCCS1(=O)=O [Example 155, (5-{4-Amino-1-[4-(1,1-dioxidoisothiazolidin-2-yl)butyl]-2-ethoxymethyl-1H-imidazo[4,5-c]quinolin-7-yl}pyridin-3-yl)methanol] | 184.5 to 186
CCOCc1nc2c(N)nc3cc(-c4cccc(CO)c4)ccc3c2n1CCCCN1CCCS1(=O)=O [Example 156, (5-{4-Amino-1-[4-(1,1-dioxidoisothiazolidin-2-yl)butyl]-2-ethoxymethyl-1H-imidazo[4,5-c]quinolin-7-yl}phenyl)methanol] | 158 to 161
CCOCc1nc2c(N)nc3cc(-c4cccnc4)ccc3c2n1CCCCNC(=O)OC(C)(C)C [Example 157, tert-Butyl {4-[4-amino-2-ethoxymethyl-7-(pyridin-3-yl)-1H-imidazo[4,5-c]quinolin-1-yl]butyl}carbamate] | 117 to 119
CCCc1nc2c(N)nc3cc(-c4cccnc4)ccc3c2n1CCCCNC(=O)OC(C)(C)C [Example 158, tert-Butyl {4-[4-amino-2-propyl-7-(pyridin-3-yl)-1H-imidazo[4,5-c]quinolin-1-yl]butyl}carbamate] | 136 to 138
CCOCc1nc2c(N)nc3cc(-c4cccnc4)ccc3c2n1CC1COC(C)(C)O1 (stereo not drawn) [Example 159, 1-[(2,2-Dimethyl-1,3-dioxolan-4-yl)methyl]-2-ethoxymethyl-7-(pyridin-3-yl)-1H-imidazo[4,5-c]quinolin-4-amine] | 181 to 182
CCOCc1nc2c(N)nc3cc(-c4ccc(CO)cc4)ccc3c2n1CC1COC(C)(C)O1 (stereo not drawn) [Example 160, 1-[(2,2-Dimethyl-1,3-dioxolan-4-yl)methyl]-2-ethoxymethyl-7-(4-hydroxymethylphenyl)-1H-imidazo[4,5-c]quinolin-4-amine] | 219 to 220
CCOCc1nc2c(N)nc3cc(-c4ccccc4)ccc3c2n1CC1COC(C)(C)O1 (stereo not drawn) [Example 161, 1-[(2,2-Dimethyl-1,3-dioxolan-4-yl)methyl]-2-ethoxymethyl-7-phenyl-1H-imidazo[4,5-c]quinolin-4-amine] | 168 to 170
CCOCc1nc2c(N)nc3cc(-c4cccnc4)ccc3c2n1CC(O)CO (stereo not drawn) [Example 162, 3-[4-Amino-2-ethoxymethyl-7-(pyridin-3-yl)-1H-imidazo[4,5-c]quinolin-1-yl]propane-1,2-diol] | 218 to 220
CCOCc1nc2c(N)nc3cc(-c4ccccc4)ccc3c2n1CCCOC [Example 163, 2-Ethoxymethyl-1-(3-methoxypropyl)-7-phenyl-1H-imidazo[4,5-c]quinolin-4-amine] | 146 to 147
CCOCc1nc2c(N)nc3cc(-c4cccnc4)ccc3c2n1CCCOC [Example 164, 2-Ethoxymethyl-1-(3-methoxypropyl)-7-(pyridin-3-yl)-1H-imidazo[4,5-c]quinolin-4-amine] | 151 to 152
CCOCc1nc2c(N)nc3cc(-c4ccncc4)ccc3c2n1CCCOC [Example 165, 2-Ethoxymethyl-1-(3-methoxypropyl)-7-(pyridin-4-yl)-1H-imidazo[4,5-c]quinolin-4-amine] | 225 to 226
CCOCc1nc2c(N)nc3cc(-c4ccc(CO)cc4)ccc3c2n1CCCOC [Example 166, 2-Ethoxymethyl-1-(3-methoxypropyl)-7-(4-hydroxymethylphenyl)-1H-imidazo[4,5-c]quinolin-4-amine] | 228 to 229
